Reference: patent publication US20090022803A1, “Oral Formulations For Delivery of Catecholic Butanes Including Ndga Compounds” (priority 2005, published 2009)
Like-named read-outs stand apart in the source and are kept apart here.

Format: physicochemical
Protocol: A 10 mL solution of M4N at a concentration of about 10 mg/mL in 40% BP-β-CD was made as follows. About 10 mL of the 40% HP-β-CD solution were added to a glass beaker containing a stir bar. The beaker was placed on a magnetic plate and the stir bar was set to stir at medium speed. About […] of M4N were slowly added to the 40% HP-β-CD in the center of the beaker with the aid of a spatula. The M4N/40% HP-β-CD mixture was stirred for 2 hr or until all M4N was uniformly suspended without any clumps being present. The M4N/40% HP-β-CD mixture was optionally heated at 80° C. for about 30 min. (or longer if a larger volume of solution was desired, for example, 1 hr at 80° C. for 100 mL of the M4N/HP-β-CD mixture), or longer as needed to ensure complete dissolution of M4N. […] The final M4N/40% HP-β-CD solution was stored at room temperature and was kept protected from light. This process may be scaled up or down to obtain the requisite volume or concentration of M4N. Formulations containing M4N in other cyclodextrin solutions may be similarly made, such as, for example, by substituting HP-β-CD in the process described above with other cyclodextrins. […]
A 10 mL solution of M4N at a concentration of about 10 mg/mL in 50% HP-β-CD/0.5% HPMC was made as follows. About 10 mL of the 50% HP-β-CD/0.5% HPMC solution were added to a glass beaker containing a stir bar. The beaker was placed on a magnetic plate and the stir bar was set to stir at medium speed. About 100 mg of M4N were slowly added to the 50% HP-β-CD/0.5% HPMC in the center of the beaker with the aid of a spatula. The M4N/50% HP-β-CD/0.5% HPMC mixture was stirred for 24 hr or until all M4N was uniformly suspended without any clumps being present. The M4N/50% HP-β-CD/0.5% HPMC mixture was heated at about 90° C. for about 30 min. (or longer if a larger volume of solution was desired, for example, 1 hr at 90° C. for 500 mL of the M4N/50% HP-β-CD/0.5% HPMC mixture), or longer as needed to ensure complete dissolution of M4N. […] The final M4N/50% HP-β-CD/0.5% HPMC solution was stored at room temperature and was kept protected from light.
A 10 mL solution of M4N at a concentration of about 20 mg/mL in 5% EC (w/v) (the “EC formulation”) was made as follows. About 10 mL of 5% EC formulation, made as described above, were added to a glass beaker containing a stir bar. The beaker was placed on a magnetic plate and the stir bar was set to stir at medium speed, and covered with a round Teflon® cover. About 200 mg of M4N were slowly added to the 5% EC formulation in the center of the beaker with the aid of a spatula to prevent M4N from sticking to the beaker wall. The M4N/EC mixture was stirred for 2 hr or until all M4N had dissolved or was uniformly suspended without any clumps being present. The M4N/EC mixture was heated at about 60° C. for about 30 min. (or longer if a larger volume of solution was desired, for example, 1 hr at 60° C. for 500 mL of the M4N/EC mixture), or longer as needed to ensure complete dissolution of M4N. […] The final M4N/EC solution was stored at room temperature and was kept protected from light.
A 10 mL solution of M4N at a concentration of about 50 mg/mL in sesame oil was made as follows. About 10 mL of sesame oil were added to a glass beaker containing a stir bar. The beaker was placed on a magnetic plate and the stir bar was set to stir at medium speed. About 500 mg of M4N were slowly added to the sesame oil in the center of the beaker with the aid of a spatula to prevent M4N from sticking to the beaker wall. The M4N/sesame oil mixture was stirred for about 2 hr or until all M4N had dissolved or was uniformly suspended without any clump being present. The M4N/sesame oil mixture was heated at about 60° C. for about 30 min. (or longer if a larger volume of solution was desired, for example, 1 hr at 60° C. for 500 mL of the M4N/sesame oil mixture), or longer as need to ensure complete dissolution of M4N. […]

With COc1ccc(C[C@@H](C)[C@@H](C)Cc2ccc(OC)c(OC)c2)cc1OC [Formulation M4N, meso-1,4-bis(3,4-dimethoxyphenyl)-2,3-dimethylbutane] the “Dissolution After Cool-Down” value (M4N 50 mg/mL in Corn Oil) was “Y”, the “Dissolution After Cool-Down” value (M4N 50 mg/mL in Mineral Oil) was “Y” and the “Dissolution After Cool-Down” value (M4N 50 mg/mL in Sesame Oil) was “Y”. For the same molecule, the “Dissolution After Cool-Down” value (M4N 50 mg/mL in Soybean Oil) was “N”, the “Dissolution After Cool-Down” value (M4N 52 mg/mL in 40% Peppermint Oil, 40% PEG 400, 20% Glycerol) was “N” and the “Dissolution After Cool-Down” value (M4N 59 mg/mL in 45% Peppermint Oil, 45% PEG 400, 10% Glycerol) was “N”. The “Dissolution After Cool-Down” value (M4N 60 mg/mL in 0.4% (v/v) Cinnamaldehyde, 5% (w/v) Beeswax, 94.5% (v/v) Olive Oil, cell wraps: Creamy solid) was “Creamy”, the “Dissolution After Cool-Down” value (M4N 60 mg/mL in 33% Peppermint Oil, 33% Tween ® 20, 33% PEG 400) was “Y” and the “Dissolution After Rotation” value (M4N 60 mg/mL in 50% HP-β-CD, 0.5% CMC) was “Suspension”. For the same molecule, the “Dissolution After Cool-Down” value (M4N 60 mg/mL in 50% Peppermint Oil, 50% PEG 300) was “Y”, the “Dissolution After Cool-Down” value (M4N 60 mg/mL in 50% Peppermint Oil, 50% PEG 400) was “Y” and the “Dissolution After Cool-Down” value (M4N 60 mg/mL in 50% Peppermint Oil, 50% Sesame Oil) was “Y”. The “Dissolution After Cool-Down” value (M4N 60 mg/mL in 50% Peppermint Oil, 50% Tween ® 20) was “Y”, the “Dissolution After Cool-Down” value (M4N 60 mg/mL in 60% Peppermint Oil, 40% PEG 300) was “Y” and the “Dissolution After Cool-Down” value (M4N 60 mg/mL in 60% Peppermint Oil, 40% PEG 400) was “N”. The “Dissolution After Cool-Down” value (M4N 60 mg/mL in 80% Olive Oil, 20% Soybean Oil) was “N”, the “Dissolution After Cool-Down” value (M4N 60 mg/mL in 85% Sesame Oil, 15% Tween ® 20) was “N” and the “Dissolution After Cool-Down” value (M4N 60 mg/mL in Corn Oil) was “Y”. The “Dissolution After Cool-Down” value (M4N 60 mg/mL in Peppermint Oil) was “Y”, the “Dissolution After Cool-Down” value (M4N 100 mg/g in 50% Soybean Oil, 50% Beeswax (w/w), cell wraps: waxy solid) was “waxy” and the “Dissolution After Rotation” value (M4N 100 mg/mL in 2.3% HPMC) was “N”. The “Dissolution After Cool-Down” value (M4N 100 mg/mL in 5% EC in EtOH) was “N”, the “Dissolution After Rotation” value (M4N 100 mg/mL in 5% EC in EtOH) was “N” and the “Dissolution After Rotation” value (M4N 100 mg/mL in 15% α-CD) was “N”. For the same molecule, the “Dissolution After Heating at X° C.” value (M4N 100 mg/mL in 15% α-CD, 90°) was “N at 90°”, the “Dissolution After Rotation” value (M4N 100 mg/mL in 30% HP-β-CD) was “N” and the “Dissolution After Heating at X° C.” value (M4N 100 mg/mL in 30% HP-β-CD, 90°) was “N at 90°”. For the same molecule, the “Dissolution After Rotation” value (M4N 100 mg/mL in 40% HP-β-CD) was “N”, the “Dissolution After Heating at X° C.” value (M4N 100 mg/mL in 40% HP-β-CD, 80°) was “N at 80°” and the “Dissolution After Rotation” value (M4N 100 mg/mL in 50% HP-β-CD) was “N”. For the same molecule, the “Dissolution After Heating at X° C.” value (M4N 100 mg/mL in 50% HP-β-CD, 90°) was “N at 90°”, the “Dissolution After Cool-Down” value (M4N 100 mg/mL in 50% Peppermint Oil, 50% PEG 400) was “N” and the “Dissolution After Cool-Down” value (M4N 100 mg/mL in Camillia Oil, cell wraps: Creamy solid) was “Creamy”. For the same molecule, the “Dissolution After Cool-Down” value (M4N 100 mg/mL in Corn Oil) was “N”, the “Dissolution After Cool-Down” value (M4N 100 mg/mL in Eugenol, Beeswax, Olive Oil, 0.5% (v/v) Eugenol, cell wraps: Creamy solid) was “Creamy” and the “Dissolution After Cool-Down” value (M4N 100 mg/mL in Mineral Oil) was “N”. The “Dissolution After Cool-Down” value (M4N 100 mg/mL in Peppermint Oil) was “Y”, the “Dissolution After Cool-Down” value (M4N 125 mg/mL in 50% Peppermint Oil, 50% PEG 300) was “N” and the “Dissolution After Cool-Down” value (M4N 125 mg/mL in 50% Peppermint Oil, 50% PEG 400) was “N”. The “Dissolution After Cool-Down” value (M4N 125 mg/mL in 50% Peppermint Oil, 50% Tween ® 20) was “N”, the “Dissolution After Cool-Down” value (M4N 125 mg/mL in Peppermint Oil) was “Y” and the “Dissolution After Rotation” value (M4N 150 mg/g in 84% HP-β-CD, 1% HPMC, Lyophilized) was “powder”. The “Dissolution After Rotation” value (M4N 185 mg/g in 81.5% (w/w) HP-β-CD, Lyophilized) was “powder”, the “Dissolution After Cool-Down” value (M4N 200 mg/g in 75% Soybean Oil, 25% Beeswax (w/w), cell wraps: waxy solid) was “waxy” and the “Dissolution After Cool-Down” value (M4N 200 mg/g in 90% Olive Oil, 10% Beeswax (w/w), cell wraps: waxy solid) was “waxy”. For the same molecule, the “Dissolution After Cool-Down” value (M4N 200 mg/g in 90% Soybean Oil, 10% Beeswax (w/w), cell wraps: waxy solid) was “waxy”, the “Dissolution After Cool-Down” value (M4N 200 mg/g in 95% Olive Oil, 5% Beeswax (w/w), cell wraps: waxy solid) was “waxy” and the “Dissolution After Cool-Down” value (M4N 200 mg/g in 95% Soybean Oil, 5% Beeswax (w/w), cell wraps: waxy solid) was “waxy”. For the same molecule, the “Dissolution After Cool-Down” value (M4N 200 mg/mL in Mineral Oil) was “N”, the “Dissolution After Cool-Down” value (PEG 300 100%, M4N 25 mg/mL, after heating at 50° C.) was “Y” and the “Dissolution After Cool-Down” value (PEG 400 100%, M4N 25 mg/mL, after heating at 50° C.) was “Y”. The “Dissolution After Cool-Down” value (PEG 400 100%, M4N 30 mg/mL, after heating at 50° C.) was “Y”, the “Dissolution After Cool-Down” value (PEG 400 100%, M4N 40 mg/mL, after heating at 50° C.) was “Y” and the “Dissolution After Cool-Down” value (PEG 400 100%, M4N 50 mg/mL, after heating at 60° C.) was “Y”. For the same molecule, the “Dissolution After Cool-Down” value (PEG 400 100%, M4N 100 mg/mL, after heating at 60° C.) was “N”, the “Dissolution After Cool-Down” value (PEG 400 mono-laurate 100%, M4N 20 mg/mL, after heating at 50° C.) was “Y” and the “Dissolution After Cool-Down” value (PEG 400 mono-laurate 100%, M4N 50 mg/mL, after heating at 50° C.) was “Y”. For the same molecule, the “Dissolution After Cool-Down” value (Propylene Glycol 100% (w/v), M4N 1 mg/mL, after heating at 55° C.) was “Y”, the “Dissolution After Cool-Down” value (Propylene Glycol 100% (w/v), M4N 10 mg/mL, after heating at 55° C.) was “Y” and the “Dissolution After Cool-Down” value (Propylene Glycol 100% (w/v), M4N 20 mg/mL, after heating at 55° C.) was “Y”.
